{"source": "patent US9757350B2", "about": "“Small molecule inhibitors of replication protein A that also act synergistically with cisplatin” (Indiana University Research and Technology Corp., priority 2010, dated 2017)", "key": {"[1]": {"system": "NSCLC cell lines A549 and H460", "settings": "reference 1; cited from earlier work"}, "[2]": {"target": "T1, full-length heterotrimeric RPA (Homo sapiens, UniProt P27694)", "T1 construct": "Human full-length, un-tagged heterotrimeric RPA (RPA) was purified as previously describe; made in house", "T1 sequence (P27694 whole entry)": "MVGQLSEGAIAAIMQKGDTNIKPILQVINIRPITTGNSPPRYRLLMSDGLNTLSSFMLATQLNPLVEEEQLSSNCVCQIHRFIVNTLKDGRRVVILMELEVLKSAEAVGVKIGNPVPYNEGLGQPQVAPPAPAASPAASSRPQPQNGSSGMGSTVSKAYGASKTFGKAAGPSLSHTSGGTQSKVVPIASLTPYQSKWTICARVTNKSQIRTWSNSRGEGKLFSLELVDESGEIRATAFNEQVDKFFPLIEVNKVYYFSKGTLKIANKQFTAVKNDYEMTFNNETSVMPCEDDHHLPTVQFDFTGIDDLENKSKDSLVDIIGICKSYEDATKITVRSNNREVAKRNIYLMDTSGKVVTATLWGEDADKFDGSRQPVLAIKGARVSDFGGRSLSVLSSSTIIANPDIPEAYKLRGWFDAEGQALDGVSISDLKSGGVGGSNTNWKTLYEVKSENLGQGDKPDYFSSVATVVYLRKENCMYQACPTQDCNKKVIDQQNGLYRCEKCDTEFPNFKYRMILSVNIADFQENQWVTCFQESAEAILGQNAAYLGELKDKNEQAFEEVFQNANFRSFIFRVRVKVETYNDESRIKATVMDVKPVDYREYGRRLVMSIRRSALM", "T1 sequence (P15927 whole entry partner)": "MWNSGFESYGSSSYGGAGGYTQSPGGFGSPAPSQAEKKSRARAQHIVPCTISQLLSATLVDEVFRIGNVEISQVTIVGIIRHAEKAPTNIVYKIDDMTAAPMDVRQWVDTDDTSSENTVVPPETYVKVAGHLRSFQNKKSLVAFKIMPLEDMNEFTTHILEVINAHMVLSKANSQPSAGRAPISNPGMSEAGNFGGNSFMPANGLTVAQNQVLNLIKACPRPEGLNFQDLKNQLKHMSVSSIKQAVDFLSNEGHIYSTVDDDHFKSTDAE", "T1 sequence (P35244 whole entry partner)": "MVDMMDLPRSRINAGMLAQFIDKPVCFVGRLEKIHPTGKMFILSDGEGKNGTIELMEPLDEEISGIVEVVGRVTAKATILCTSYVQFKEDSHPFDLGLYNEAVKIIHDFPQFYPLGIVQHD", "assay": "EMSA in vitro DNA binding assay, full-length heterotrimeric RPA", "settings": "ssDNA substrate", "description": "RPA. Human full-length, un-tagged heterotrimeric RPA (RPA) was purified as previously describe.\nRPA and DBD-A/B Binding. EMSAs were performed as previously described (22) using a 30-base purine rich ssDNA substrate (3Pc3). Briefly, reactions contained 12.5 nM 5′-[^32P]-labeled 3Pc3 ssDNA and the indicated concentrations of RPA or DBD-A/B. Protein was pre-incubated with the indicated concentration of SMI for 30 minutes at 37° C. DNA was then added and reactions incubated for an additional 5 minutes at room temperature in a final reaction volume of 40 μL. Reactions were then resolved on a 6% native polyacrylamide gel and electrophoresed at 170 volts for 1 hour. Gels were dried and quantified via phosphorimager analysis and ImageQuant software (Molecular Dynamics)."}, "RPA DBD-A/B [3]": {"target": "T2, RPA DBD-A/B (Homo sapiens, UniProt P27694)", "T2 construct": "made in house; host or cells: E. coli BL21(DE3)", "T2 sequence (P27694 181-422 limits assumed)": "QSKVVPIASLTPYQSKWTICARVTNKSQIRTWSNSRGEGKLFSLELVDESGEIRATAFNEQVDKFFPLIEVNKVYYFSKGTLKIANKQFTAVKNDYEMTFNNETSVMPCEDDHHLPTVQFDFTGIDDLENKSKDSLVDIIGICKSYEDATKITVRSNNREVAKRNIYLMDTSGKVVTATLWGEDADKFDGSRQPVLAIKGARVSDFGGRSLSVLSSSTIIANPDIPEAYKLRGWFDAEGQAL", "assay": "EMSA DNA binding assay, RPA DBD-A/B construct", "description": "DBD-A/B. The sequence encoding the RPA p70 DNA binding domains A and B were subcloned from the hrRPA plasmid (provided by Dr. Marc Wold, University of Iowa) into the pET15b (Novagen) vector and the protein was expressed in BL21(DE3) cells (Stratagene) as previously described. Briefly, cells were grown to an OD600 of 0.8, induced with 0.5 mM isopropyl-1-thio-β-D-galactopyranoside (IPTG) at 37° C. for 2-3 hours. Small scale DBD-A/B preparations were obtained from 1 L cultures and following induction, cells were harvested by centrifugation at 700×g for 30 minutes at 4° C. The pellets were suspended in Buffer A (20 mM Tris, pH 7.5, 10% glycerol, 500 mM NaCl, 10 mM β-mercaptoethanol (BME) and 1 μg/mL phenylmethanesulfonylfluoride (PMSF), leupeptin and pepstatin) at 1 mL/gram of cells. The cells were lysed by sonication and insoluble material sedimented at 15,000×g for 30 minutes at 4° C. The supernatant was then loaded onto a 10 mL phosphocellulose column, equilibrated with Buffer A, and the flow-through material collected. Imidazole was added to 5 mM to the flow through which was then loaded onto a 2 mL nickel-NTA-agarose column. The column was then washed with Buffer A containing 50 mM imidazole after which protein was eluted from the column using a gradient from 50-500 mM imidazole. Fractions were analyzed for protein content using Bradford and SDS-PAGE analysis in addition to assessment of DNA binding activity as determined by anisotropy. Fractions containing the DBD-A/B protein were pooled and dialyzed overnight in Buffer B (1 mM HEPES, pH 7.2, 10 mM dithiothreitol (DTT), 50 mM NaCl and 1 μg/mL PMSF, pepstatin and leupeptin) and aliquots stored at −80° C.\nRPA and DBD-A/B Binding. EMSAs were performed as previously described (22) using a 30-base purine rich ssDNA substrate (3Pc3). […] Gels were dried and quantified via phosphorimager analysis and ImageQuant software (Molecular Dynamics)."}, "RPA DBD-A/B [4]": {"target": "T2, RPA DBD-A/B", "assay": "Reversibility of DBD-A/B inhibition: dialysis, then fluorescence polarization", "assay_type": "binding", "settings": "overnight dialysis, then FP with F-dT12", "description": "In an experiment reported herein, DBD-A/B was incubated with CheSS19 and then the reaction mix dialyzed overnight to remove dissociable inhibitor. […] Referring now to FIG. 3D. Bar graph showing results of fluorescence polarization analysis of CheSS19 inactivated RPA DBD-A/B. Referring now to FIG. 3D, RPA DBD-A/B was pre-incubated with vehicle (1% DMSO) or CheSS19 (1 pmol in 1% DMSO) for 30 minutes at 37° C. Following incubation, the reaction mix was dialyzed versus H1 buffer overnight at 4° C. The protein was recovered and DNA binding activity measured by FP analysis of binding to an F-dT12 substrate was performed as described in “Methods”. Bar 1, DNA control, Bar 2, control vehicle treated DBD-A/B, Bar 3, Chess19 treated DBD-A/B. The data represent the mean and range of two independent experiments.\nFluorescence polarization experiments were preformed as previously described (21). SMIs were diluted in H1 buffer (10 mM HEPES, pH 7.2, 1 mM DTT, 0.01% NP-40 and 100 mM NaCl) and the final DMSO concentration was kept below 1%.\nIn order to assess the reversibility of select SMIs, the indicated SMI was pre-incubated with RPA or the DBD-A/B construct for 30 minutes at room temperature. […] The resulting protein was recovered and concentration determined by Bradford analysis. […]"}, "EcSSB": {"target": "T3, EcSSB (Escherichia coli, UniProt P0AGE0)", "T3 construct": "purchased Enzymatics, Beverly, Mass", "T3 sequence (P0AGE0 2-178)": "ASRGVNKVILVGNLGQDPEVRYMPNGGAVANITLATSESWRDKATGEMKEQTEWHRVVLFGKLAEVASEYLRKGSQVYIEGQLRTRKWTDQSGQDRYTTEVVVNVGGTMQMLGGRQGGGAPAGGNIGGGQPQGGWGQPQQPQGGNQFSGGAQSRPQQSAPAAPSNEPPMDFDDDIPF", "assay": "E. coli SSB DNA-binding EMSA", "settings": "0-200 μM, pre-incubated with protein", "description": "In order to study the specificity of the CheSS19, and MCI13E/F compounds, their effects on two ssDNA binding proteins which use OB-folds for recognition and binding of ssDNA, E. coli SSB (6) and the Schizosaccharomyces pombe Pot1(DBD) domain (11) were studied. The EcSSB protein is a non-sequence-specific ssDNA binding protein, whereas the SpPot1(DBD) protein is a telomere-specific, ssDNA binding protein. In these experiments, protein was pre-incubated with the SMIs, as was done for the RPA experiments, prior to addition of radiolabeled ssDNA to the reactions.\nReferring now to FIG. 6B. CheSS19 titration in EcSSB DNA-binding reactions. CheSS19 (0, 25, 50, 100, and 200 μM) was pre-incubated with EcSSB and binding reactions were carried out. Referring now to FIG. 6C. Titration of MCI13E and MCI13F in EcSSB DNA-binding reactions. Concentrations of MCI13E/F used were: 0, 25, 50, 100, and 200 μM. In all panels, the ‘Free’ ssDNA is indicated with an arrow and the ‘Bound’ ssDNA is indicated by brackets. All reactions were performed in the same order and manner as the RPA binding reactions. EcSSB binding was unaffected by CheSS19 and the MCI13E and MCI13F compounds […].\nEMSAs were performed similarly to those for the RPA constructs, with the following exceptions. Reactions contained 25 nM of 5′-[^32P]-labeled 3Pc3 ssDNA and 3.3 nM (assuming homotetramer formation) SSB protein (Enzymatics, Beverly, Mass.). Reactions (20 μL) were carried out in 20 mM HEPES, pH 7.5, 1 mM DTT, 0.01% NP-40, 100 mM NaCl, and resolved by 6% native polyacrylamide gel electrophoresis at 25 mA for 2 hours. Gels were dried and quantified via phosphorimager analysis and ImageQuant software (Molecular Dynamics)."}, "[5]": {"target": "T1, full-length heterotrimeric RPA", "settings": "reference 9; cited from earlier work"}, "p21": {"system": "p21", "assay": "Quantitative real-time PCR of p21 mRNA", "assay_type": "cell-based", "settings": "A549, versus untreated control", "description": "Real-Time PCR—A549 cells were plated in 10 cm dishes at 1.5×10^6, allowed to adhere, and treated for 24-48 hours with cisplatin or SMIs (5 μM). Referring now to FIG. 16B, Western blot of cells treated sequentially. For sequential treatment, A549 cells were exposed to cisplatin for 24 hours followed by the addition of SMIs for another 24 hours as above. Referring now to FIG. 16A, A549 cells were treated sequentially or concurrently with cisplatin (5 μM) and MCI13E or MCI13F for 24 total hours. Lysates were probed for p53-ser15-phosphorylation or phosphorylated-ATM. GAPDH was probed as a loading control. Concurrently treated cells were incubated simultaneously with both cisplatin and MCIs for 24 hours. RNA was extracted using RNeasy minikit (Qiagen, Germantown, Md.) per manufacturer's protocol. cDNA was generated using Applied Biosystem's (ABI) High Capacity RNA-to-cDNA kit. Validated gene primer/probe sets, also from ABI, were used for Quantitative Real Time-PCR. ABI's ΔΔCT Relative Quantification methodology was used for the analyses (applied Biosystems). Data were normalized to the housekeeping gene GAPDH and calibrated to the mock treated samples. Results presented are the average of two separate cell treatments/RNA isolations with duplicate Taqman Assays per RNA sample set.\nReferring now to FIG. 15A. Plot of Quantitative Real Time PCR analyses of mRNA expression changes of A549 cells treated with MCI13E, MCI13F and Cisplatin. Data represents the average of four separate Q-RT PCR Assays. Genes of interest were normalized to GAPDH transcript levels, and are presented as fold changes relative to untreated cell samples. Cisplatin treatment increases transcription of DDB2 (A). Referring now to FIG. 15B. Bar graph of P21/GAPDH measured in cells subjected to different treatment schemes. Referring now to FIG. 15C. Bar graph of XPC/GAPDH measured under different treatment regimes XPC Concurrent MCI/Cisplatin treated cells show a decrease in gene transcription when compared to cells treated with Cisplatin alone (24 hour)."}}, "note": "“Also recorded” adds a separate entry of the source.", "data": [{"molecule": "CCOc1ccc2cc(C3CC(c4ccc(Br)cc4)=NN3C(=O)CCC(=O)O)c(Cl)nc2c1", "note": "(stereo not shown) [TDRL-505]", "values": [{"measurement": "Mode of cell death (earlier report)", "setting": "[1]", "result": "cytotoxic via a non-apoptotic pathway"}]}, {"molecule": "O=C1OC(=O)[C@H]2C3C=CC(CC3)[C@@H]12", "note": "[CheSS19]", "values": [{"measurement": "Inhibition of full-length RPA DNA binding", "setting": "[2]", "result": "potent inhibitory activity"}, {"measurement": "Inhibition of DBD-A/B DNA binding", "setting": "RPA DBD-A/B [3]", "result": "potent inhibitory activity; also recorded: inhibits the DNA binding activity of the DBD-A/B construct with similar potency to the heterotrimeric RPA preparation"}, {"measurement": "Reversibility of DBD-A/B inhibition", "setting": "RPA DBD-A/B [4]", "result": "inhibiting DBD-A/B in an irreversible manner"}, {"measurement": "Effect on EcSSB ssDNA binding", "setting": "EcSSB", "result": "unaffected"}, {"measurement": "Reversibility of full-length RPA inhibition (earlier report)", "setting": "[5]", "result": "irreversible"}]}, {"molecule": "N.N.[Cl][Pt][Cl]", "note": "[cisplatin, cis-diamminedichloroplatinum (II)]", "values": [{"measurement": "p21 mRNA expression, single agent", "setting": "p21", "result": "dramatic increase in p21 mRNA expression"}]}]}
